From ChEMBL document CHEMBL1201862, “PubChem BioAssay data set” (2004)
Active and inactive are the calls of the source.

Tests used:
[1] = target: Heat shock protein HSP 90-alpha (Homo sapiens, UniProt P07900); format: functional, organism-based
[2] = target: Cytochrome P450 2C9 (Homo sapiens, UniProt P11712)
[3] = target: Cytochrome P450 2C19 (Homo sapiens, UniProt P33261); assay: Cytochrome panel assay with activity outcomes. Panel member name: p450-cyp2c19 Compounds with AC50 equal or less than 10 uM are considered active; format: functional; conditions: read-out: AC50
Sequence of Cytochrome P450 2C19 (P33261 whole entry): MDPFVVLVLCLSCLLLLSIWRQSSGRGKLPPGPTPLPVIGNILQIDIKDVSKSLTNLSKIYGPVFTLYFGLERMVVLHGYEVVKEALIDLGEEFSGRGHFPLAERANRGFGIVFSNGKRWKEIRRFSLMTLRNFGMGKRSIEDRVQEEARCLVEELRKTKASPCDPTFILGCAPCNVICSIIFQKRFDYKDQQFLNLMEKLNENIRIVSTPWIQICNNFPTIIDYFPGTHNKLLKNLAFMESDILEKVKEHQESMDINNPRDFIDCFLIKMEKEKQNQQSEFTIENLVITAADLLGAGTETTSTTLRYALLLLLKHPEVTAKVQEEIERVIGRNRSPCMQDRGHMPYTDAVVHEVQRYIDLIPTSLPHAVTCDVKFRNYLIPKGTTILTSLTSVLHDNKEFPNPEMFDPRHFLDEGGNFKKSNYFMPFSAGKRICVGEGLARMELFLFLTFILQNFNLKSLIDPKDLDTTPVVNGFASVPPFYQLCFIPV

[4] = target: T1, Cytochrome P450 1A2 (Homo sapiens, UniProt P05177);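 note: PubChem cytochrome P450 panel assay, CYP1A2 panel member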
T1 sequence (P05177 whole entry): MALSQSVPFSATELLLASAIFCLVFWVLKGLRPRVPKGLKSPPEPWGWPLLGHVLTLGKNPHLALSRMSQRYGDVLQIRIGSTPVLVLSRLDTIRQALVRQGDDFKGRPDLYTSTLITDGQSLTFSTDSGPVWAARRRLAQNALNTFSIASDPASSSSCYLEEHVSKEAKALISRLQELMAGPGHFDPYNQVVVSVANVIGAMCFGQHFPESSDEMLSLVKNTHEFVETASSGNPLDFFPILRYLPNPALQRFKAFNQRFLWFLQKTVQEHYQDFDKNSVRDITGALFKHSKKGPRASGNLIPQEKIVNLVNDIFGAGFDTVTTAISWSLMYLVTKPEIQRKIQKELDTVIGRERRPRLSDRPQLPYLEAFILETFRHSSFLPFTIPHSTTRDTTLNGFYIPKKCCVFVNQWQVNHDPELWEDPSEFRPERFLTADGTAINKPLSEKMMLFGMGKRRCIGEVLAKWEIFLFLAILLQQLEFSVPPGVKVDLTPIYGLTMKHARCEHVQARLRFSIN

[5] = THP-1 cell cytotoxicity, dose response, cytotoxicity control for non-replicating M. tuberculosis project (AID 489025); format: functional
[6] = cells; format: functional
[7] = target: T2, Ubiquitin-conjugating enzyme E2 N (Homo sapiens, UniProt P61088); format: functional;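 note: Dose-response confirmation in a TR-FRET assay detecting UBC13-driven polyubiquitin chain formation, inhibition measured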
T2 sequence (P61088 whole entry): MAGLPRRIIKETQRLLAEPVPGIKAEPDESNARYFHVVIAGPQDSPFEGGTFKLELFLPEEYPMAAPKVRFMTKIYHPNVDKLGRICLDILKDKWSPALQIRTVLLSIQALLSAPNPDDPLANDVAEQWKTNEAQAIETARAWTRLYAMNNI

[8] = target: Glyceraldehyde-3-phosphate dehydrogenase (Homo sapiens, UniProt P04406)
Sequence of Glyceraldehyde-3-phosphate dehydrogenase (P04406 whole entry): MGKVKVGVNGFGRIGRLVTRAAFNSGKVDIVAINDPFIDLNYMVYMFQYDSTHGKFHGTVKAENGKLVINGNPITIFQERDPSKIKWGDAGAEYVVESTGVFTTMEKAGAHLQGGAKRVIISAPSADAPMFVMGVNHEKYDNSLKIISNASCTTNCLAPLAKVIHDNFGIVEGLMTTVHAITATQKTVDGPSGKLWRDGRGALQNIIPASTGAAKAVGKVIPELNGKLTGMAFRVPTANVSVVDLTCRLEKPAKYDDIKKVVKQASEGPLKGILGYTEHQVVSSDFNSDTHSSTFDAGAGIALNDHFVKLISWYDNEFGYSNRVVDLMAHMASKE

[9] = target: T3, Endoribonuclease toxin MazF (Escherichia coli K-12, UniProt P0AE70); assay: activation of MazEF endoribonuclease cleavage – biochemical, fluorescence, single-stranded RNA substrate, uHTS hits, dose response (AID 588481); format: functional
T3 sequence (P0AE70 whole entry): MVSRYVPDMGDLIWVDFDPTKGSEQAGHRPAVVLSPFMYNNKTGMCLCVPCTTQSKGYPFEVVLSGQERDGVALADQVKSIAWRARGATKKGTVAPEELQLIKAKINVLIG

[10] = target: T3, Endoribonuclease toxin MazF; assay: substrate-only fluorescence increase artefacts – biochemical, single-stranded RNase substrate, counter-screen for MazEF activator project, dose response (AID 588502); format: functional
[11] = target: DNA dC->dU-editing enzyme APOBEC-3G (Homo sapiens, UniProt Q9HC16); assay: Dose Response confirmation of small molecule APOBEC3G DNA Deaminase Inhibitors via a fluorescence-based single-stranded DNA deaminase assay. [Related pubchem assays (depositor defined):AID493012, AID493028]; format: functional
Sequence of DNA dC->dU-editing enzyme APOBEC-3G (Q9HC16 whole entry): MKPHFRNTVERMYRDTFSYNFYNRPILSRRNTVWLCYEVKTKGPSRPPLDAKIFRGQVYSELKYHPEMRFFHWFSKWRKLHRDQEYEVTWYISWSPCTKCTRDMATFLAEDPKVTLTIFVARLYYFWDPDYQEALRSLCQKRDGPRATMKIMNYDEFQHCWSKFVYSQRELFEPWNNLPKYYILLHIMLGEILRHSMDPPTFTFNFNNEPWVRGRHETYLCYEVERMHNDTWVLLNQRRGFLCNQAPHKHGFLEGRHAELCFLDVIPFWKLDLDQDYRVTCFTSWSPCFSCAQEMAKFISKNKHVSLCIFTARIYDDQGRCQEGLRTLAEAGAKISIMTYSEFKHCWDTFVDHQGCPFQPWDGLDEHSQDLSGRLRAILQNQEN

[12] = Luminescence Cell-Based Dose Confirmation HTS to Identify Activators of 5'UTR Stem-Loop Driven Alpha-Synuclein mRNA Translation in H4 Neuroglioblastoma Cells. [Related pubchem assays: 1829 (Project Summary), 1814 (Primary HTS)]; format: functional
[13] = Luminescence Cell-Based Dose Response HTS to Identify Activators of Luciferase Translation or Activity in H4 […] Cells. [Related pubchem assays: 1829 (Project Summary), 1814 (Primary HTS)]; format: functional
[14] = test system: H4; assay: Luminescence Cell-Based Dose Response HTS to Identify Activators of 5'UTR Stem-Loop Driven Prion Protein mRNA Translation in H4 Neuroglioblastoma Cells. [Related pubchem assays: 1829 (Project Summary), 1814 (Primary HTS)]; format: functional; conditions: Homo sapiens
[15] = intracellular Trypanosoma cruzi inhibitors in host cells – cell-based, plate reader, cherry-pick samples, set 3, dose response (AID 651818); format: functional;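 note: compounds incubated with infected cells for about four days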
[16] = A549 cell cytotoxicity, dose response, cytotoxicity control, plate reader, cherry-pick, antagonist series (AID 743412); format: functional, cell-based
[17] = toxicity toward HepG2 liver cells – cell-based, plate reader, cherry-pick, antagonist series, cytotoxicity control, dose response (AID 743416); format: functional
[18] = blockers of bursicon-stimulated LGR2 cAMP reporter – cell-based, HEK293, CRE-luciferase reporter, cherry pick, set 2, dose response (AID 743343); format: functional;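 note: transfected cells were stimulated with diluted bursicon conditioned medium after compound addition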
[19] = blockade of melanocortin 4 receptor signaling – cell-based, plate reader, cherry pick, counter-screen for LGR2 antagonist project, dose response (AID 743444); format: functional;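 note: transfected HEK 293 cells stimulated with alpha-MSH peptide; potency of inhibitors of the alpha-MSH evoked signal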
[20] = viability loss in HEK293 cells – cell-based, plate reader, cherry-picked samples, cytotoxicity control, dose response (AID 743446); format: functional
[21] = growth inhibition of yeast DHODH-expressing 3D7 parasites – SYBR Green, dry powder samples, dose response (AID 1159570); format: functional, cell-based;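 note: parasite growth measured after 72 hours of compound exposure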
[22] = P. falciparum Dd2 growth inhibitors, dose response, SYBR Green, cherry-picked samples (AID 1159567); format: functional, cell-based
[23] = Dd2 malaria parasite growth inhibition potency – SYBR Green, dry powder samples, dose response (AID 1159566); format: functional, cell-based;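 note: potency for growth inhibition with lower SYBR green DNA signal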
[24] = growth inhibition of PfATP4-mutant resistant parasites – NITD609-resistant line, SYBR Green, dry powder, dose response (AID 1159571); format: functional, cell-based;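 note: parasites synchronized at ring stage by sorbitol before testing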
[25] = target: T4, Leucine aminopeptidase (Plasmodium falciparum 3D7, UniProt Q8IL11); assay: P. falciparum M17LAP inhibitors, primary screen, biochemical, fluorogenic H-Leu-NHMec substrate, 1536-well (AID 1619); format: functional
T4 sequence (Q8IL11 whole entry): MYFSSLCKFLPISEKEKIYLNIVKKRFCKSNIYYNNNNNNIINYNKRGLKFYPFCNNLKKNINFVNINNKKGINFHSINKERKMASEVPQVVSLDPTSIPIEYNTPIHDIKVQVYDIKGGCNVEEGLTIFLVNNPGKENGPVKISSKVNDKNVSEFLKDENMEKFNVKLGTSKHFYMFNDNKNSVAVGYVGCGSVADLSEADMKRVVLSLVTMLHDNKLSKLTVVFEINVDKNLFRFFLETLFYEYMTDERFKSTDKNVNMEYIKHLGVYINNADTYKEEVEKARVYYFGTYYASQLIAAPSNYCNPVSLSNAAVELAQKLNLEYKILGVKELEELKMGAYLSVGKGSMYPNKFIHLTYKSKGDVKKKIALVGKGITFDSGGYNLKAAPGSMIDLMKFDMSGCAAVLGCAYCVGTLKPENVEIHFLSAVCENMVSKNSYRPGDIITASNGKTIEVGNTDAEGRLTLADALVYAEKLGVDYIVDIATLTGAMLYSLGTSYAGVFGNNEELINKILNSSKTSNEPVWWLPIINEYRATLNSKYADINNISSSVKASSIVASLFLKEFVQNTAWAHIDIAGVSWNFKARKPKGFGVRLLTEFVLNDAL

[26] = Trypanosoma cruzi growth suppression in host cells – NIH3T3 host cells, beta-gal luminescence, confirmation (AID 2044); format: functional, cell-based;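 note: intracellular parasites grown in NIH/3T3 mouse fibroblasts as host cells; luminescent beta-galactosidase reporter signal from transgenic T. cruzi replicating inside host cells; inhibitors lower the luminescence signal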
[27] = NIH3T3 cell viability loss – ATP luminescence, mouse fibroblasts, counter-screen, dose response (AID 2010); format: functional, cell-based;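 note: cells exposed to compound for about 90 hours before reading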
[28] = target: Cytochrome P450 3A4 (Homo sapiens, UniProt P08684);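 note: CYP3A4 tested as one member of a cytochrome P450 panel screen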
Sequence of Cytochrome P450 3A4 (P08684 whole entry): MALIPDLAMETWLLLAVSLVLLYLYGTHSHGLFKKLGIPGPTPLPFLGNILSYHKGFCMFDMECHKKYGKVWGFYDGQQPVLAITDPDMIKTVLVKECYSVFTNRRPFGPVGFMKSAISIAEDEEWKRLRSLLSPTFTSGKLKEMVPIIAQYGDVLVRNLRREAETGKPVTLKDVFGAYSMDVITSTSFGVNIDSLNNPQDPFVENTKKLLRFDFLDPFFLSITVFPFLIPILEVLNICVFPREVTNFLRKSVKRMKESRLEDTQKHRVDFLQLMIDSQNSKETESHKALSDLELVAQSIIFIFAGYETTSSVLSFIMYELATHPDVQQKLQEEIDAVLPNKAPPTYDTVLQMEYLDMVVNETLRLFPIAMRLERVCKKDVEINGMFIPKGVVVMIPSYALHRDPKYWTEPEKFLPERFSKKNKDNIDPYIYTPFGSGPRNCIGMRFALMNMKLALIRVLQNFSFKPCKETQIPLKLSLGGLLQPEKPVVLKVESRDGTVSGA

Sequence of Cytochrome P450 2C9 (P11712 whole entry): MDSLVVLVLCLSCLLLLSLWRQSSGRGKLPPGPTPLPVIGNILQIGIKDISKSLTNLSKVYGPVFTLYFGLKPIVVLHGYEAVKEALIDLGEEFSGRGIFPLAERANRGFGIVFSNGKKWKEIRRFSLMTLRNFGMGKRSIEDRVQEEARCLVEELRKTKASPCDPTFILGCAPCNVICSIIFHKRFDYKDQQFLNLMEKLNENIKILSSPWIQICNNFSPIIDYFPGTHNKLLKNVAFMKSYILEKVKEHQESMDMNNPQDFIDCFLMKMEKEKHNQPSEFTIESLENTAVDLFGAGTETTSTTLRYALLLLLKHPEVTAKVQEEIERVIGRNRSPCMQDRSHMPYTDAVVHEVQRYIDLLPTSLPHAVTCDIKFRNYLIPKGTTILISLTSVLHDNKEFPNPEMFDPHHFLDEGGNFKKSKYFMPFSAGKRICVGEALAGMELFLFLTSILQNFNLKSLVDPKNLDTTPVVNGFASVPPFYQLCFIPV

## CC(C)=CCc1c2c(c3occ(-c4ccc(O)c(O)c4)c(=O)c3c1O)C=CC(C)(C)O2 [POMIFERIN]
[1]
  AC50: 13.3 µM (active)

## N#CCCn1c(=O)c(-c2ccc(Cl)cc2)nc2cnc(Oc3cccc(Cl)c3)nc21
[2]
  AC50: inconclusive

## Cc1nc(NC(=O)c2ccccc2)sc1-c1csc(Nc2ccc(F)cc2)n1
[3]
  AC50: 0.355 µM (inconclusive)
[4]
  AC50: 4.47 µM (inconclusive)
[2]
  AC50: inconclusive

## Nc1nc2ccccc2n1C(=O)c1ccc(F)cc1
[5]
  CC50: > 40 µM (active)
[6]
  IC50: 9.58 µM (active)

## Cc1ccc(C(=O)N/C(=C/c2ccc(-c3cccc([N+](=O)[O-])c3)o2)C(=O)NCCCN(C)C)cc1
[7]
  IC50: > 20 µM (inactive)

## CN1CCN(C2=C(Cl)C(=O)N(c3cccc(C(F)(F)F)c3)C2=O)CC1
[8]
  IC50: > 50 µM (inconclusive)

## Cn1cc(Cl)c(C(=O)N/N=C/c2ccc3c4c(cccc24)CC3)n1
[9]
  EC50: > 99 µM (inactive)
[10]
  EC50: > 99 µM (inactive)

## CCOC(=O)c1ccc(N2C(=O)CC(N3CCC(C(=O)OCC)CC3)C2=O)cc1 (stereo not given)
[1]
  AC50: 7.24 µM (active)

## CCOc1ccc2nc(NC(=S)N(C)C)sc2c1
[11]
  IC50: 62.4 µM (active)

## N=C(Cc1cccs1)NOC(=O)COc1ccccc1Cl
[12]
  EC50: 7.6 µM (active)
[13]
  EC50: 50.4 µM (active)
[14]
  EC50: 46 µM (active)

## C=CCn1c(S)nnc1-c1ccc2ncccc2c1
[11]
  IC50: 11.9 µM (active)

## O=C(c1ccc2c(c1)ncn2C1CCCCC1)N1CCC2(CC1)OCCO2
[12]
  EC50: > 120 µM (not active)
[13]
  EC50: 6.5 µM (active)
[14]
  EC50: > 120 µM (not active)

## COc1ccccc1NS(=O)(=O)c1cc(NC(=O)c2cccs2)ccc1N1CCCC1
[11]
  IC50: 37.1 µM (active)

## C[C@H](CO)N1C[C@H](C)[C@@H](CN(C)Cc2ccc3c(c2)OCO3)Oc2c(NC(=O)Nc3ccc(C(F)(F)F)cc3)cccc2C1=O
[15]
  AC50: 2.74 µM (active)
[16]
  AC50: 25.6 µM (active)
[17]
  AC50: 21.2 µM (active)
[18]
  AC50: 19.6 µM (active)
[19]
  AC50: 11.9 µM (active)
[20]
  AC50: 17.3 µM (active)

## OC(c1ccccc1)(c1ccccc1)C1CCN(CCCOc2cccc(C(F)(F)F)c2)CC1
[16]
  AC50: 9.53 µM (active)
[17]
  AC50: 10.9 µM (active)
[18]
  AC50: 21.7 µM (active)
[19]
  AC50: 19.6 µM (active)
[20]
  AC50: 16.9 µM (active)

## COc1cccc(Cn2c(=O)c(-c3cc(F)cc(F)c3)nc3cnc(N4CCOCC4)nc32)c1
[2]
  AC50: inconclusive

## CCNc1ncc2nc(-c3ccc(OC)cc3)c(=O)n(Cc3ccc(F)cc3)c2n1
[2]
  AC50: inconclusive

## Sc1nc2ccccc2c2nc(-c3cccnc3)nn12
[7]
  IC50: > 20 µM (inactive)

## COc1ccccc1CCn1cnc(-c2ccccc2F)c1CC(C)C
[16]
  AC50: 27 µM (active)
[17]
  AC50: 27.2 µM (active)
[18]
  AC50: 17.5 µM (active)
[19]
  AC50: 18.9 µM (active)
[20]
  AC50: > 52 µM (inactive)

## C[C@H]1CN([C@@H](C)CO)C(=O)c2c(c3ccccc3n2C)-c2ccccc2CO[C@@H]1CN(C)C(=O)Nc1cccc(C(F)(F)F)c1
[21]
  AC50: 0.871 µM (active)
[22]
  AC50: 1.13 µM (active)
[23]
  AC50: 0.442 µM (active)
[24]
  AC50: 0.376 µM (active)

## CCn1c(SCC(=O)c2ccc(OC)cc2)nnc1C1CC1
[4]
  AC50: 17.8 µM (inconclusive)
[2]
  AC50: inconclusive

## COC(=O)C1=C(c2ccc(F)cc2OCc2ccccc2)C[C@@H]2CC[C@H]1N2C(=O)NC1CCN(Cc2ccccc2)CC1
[7]
  IC50: > 20 µM (inactive)

## Cc1ccccc1C(=O)NCC(=O)NNC(=S)NC(=O)c1ccccc1
[25]
  IC50: 47.4 µM (active)
[7]
  IC50: > 20 µM (inactive)

## Cc1c(C(=O)Nc2ccc3c(c2)OCO3)sc2nc(-c3ccccc3)cn12
[9]
  EC50: > 99 µM (inactive)
[10]
  EC50: > 99 µM (inactive)

## CCC(CC)COC(=O)C(C#N)c1nc2ccccc2nc1N1CCN(CC)CC1 (stereo not given)
[26]
  EC50: 4.05 µM (active)
[27]
  EC50: > 60 µM (not active)
[5]
  CC50: 26.2 µM (active)
[6]
  IC50: 17.9 µM (active)

## C[C@@H](CN1CCC[C@H]1CN1C(N)=NC[C@@H]1Cc1ccccc1)N1C[C@@H](Cc2ccccc2)N(CCCC2CCCC2)C1=N
[7]
  IC50: > 20 µM (inactive)

## Cn1c(-c2ccc3ccccc3n2)[n+](C)c2ccccc21
[12]
  EC50: > 120 µM (not active)
[13]
  EC50: 12.7 µM (active)
[14]
  EC50: 40 µM (active)

## CC12CCC(C(=O)Nc3ccccc3Br)(C/C1=N\O)C2(C)C (stereo not given)
[3]
  AC50: 31.6 µM (inconclusive)
[28]
  AC50: 20 µM (inconclusive)
[2]
  AC50: inconclusive

## CCCCOc1ccc(C2CCC(C(C)=O)C(C)C2)cc1 (stereo not given)
[12]
  EC50: 0.284 µM (active)
[13]
  EC50: 26.8 µM (active)
[14]
  EC50: 41.5 µM (active)
